# US10676467B2 (Washington University, priority 2017, dated 2020)
# Values joined by “and” are separate entries in the source; they are usually repeats but may differ in a detail not shown here. Identical values can stand only once. “Also recorded” adds a separate entry of the source.
# Columns and labels:
# [1] = 5 min p.i., literature value; cited from earlier work
# [2] = Nonhuman primate (NHP) brain microPET scan; assay type: in vivo, macaques; conditions: normal NHP
# Protocol: To examine if newly-synthesized S1P1 radioligands could cross the BBB of NHPs, two male macaques (9-10 kg) were studied with a microPET Focus 220 scanner (Concorde/CTI/Siemens Microsystems, Knoxville, Tenn.). The welfare of the animals conformed to the requirements of National Institutes of Health (NIH). This work was conducted at the Nonhuman Primate Facility of Washington University in St. Louis with approval from the IACUC. Animals were maintained in facilities with 12-hour dark and light cycles, given access to food and water ad libitum and provided a variety of psychologically enriching tasks to prevent inappropriate deprivation. Animals were scanned under anesthesia (induced with ketamine and glycopyrrolate and maintained with inhalation isoflurane). Core temperature was kept about 37° C. with a heated water blanket. The head was secured in a head holder with the brain in the center of the field of view.
# PET scans were collected from O-120 min with the following time frames: 3×1 min, 4×2 min, 3×3 min and 20×5 min. Emission data were corrected for dead time, scatter and attenuation and then reconstructed to a final resolution of 2.0 mm full-width half maximum in all 3 dimensions at the center of the field of view. PET and MRI images were co-registered using automated image registration program (AIR). For quantitative analyses, three-dimensional ROI (the global brain) was identified on the MRI and transformed to the reconstructed PET images to obtain time-activity curves. Activity measures were standardized to body weight and the dose of radioactivity injected to yield standardized uptake value (SUV).
# [3] = molecular target: T1, S1P1 (Rattus norvegicus (Rat), UniProt P48303); assay: In vitro autoradiography of [18F]12a in rat brain slices, SEW2871 blocking; assay type: binding; conditions: rat brain sections, ~6 nM tracer, 10 μM SEW2871, 60 min RT
# T1 sequence (P48303 whole entry): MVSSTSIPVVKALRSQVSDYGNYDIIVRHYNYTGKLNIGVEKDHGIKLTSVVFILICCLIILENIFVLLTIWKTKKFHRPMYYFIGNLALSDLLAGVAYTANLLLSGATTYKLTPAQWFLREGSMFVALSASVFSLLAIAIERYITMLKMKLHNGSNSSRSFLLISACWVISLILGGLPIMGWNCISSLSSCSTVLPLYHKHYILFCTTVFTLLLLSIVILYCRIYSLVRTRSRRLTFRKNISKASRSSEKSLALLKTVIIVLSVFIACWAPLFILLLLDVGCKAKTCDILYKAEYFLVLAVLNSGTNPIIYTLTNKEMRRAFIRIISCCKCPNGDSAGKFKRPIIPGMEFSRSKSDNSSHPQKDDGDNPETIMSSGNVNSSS
# Protocol: Adult female Lewis rats (n=2, 100-125 g, Charles River) were used to perform the autoradiography study. The rats (n=2) was euthanized and the brains were collected and cut into 20 μm sequential sections using a Microm cryotome and mounted on glass slides. […] Following the incubation, the brain sections were washed and exposed to the Storage Phosphor Screen in an imaging cassette overnight in −20° C. at dark for 12 h. The distribution of radioactivity was visualized by a Fuji Bio-Imaging Analyzer FLA-7000 (Fuji Photo Film, Tokyo, Japan). Photo-stimulated luminescence (PSL) from the brain slices was quantified using Multi Gauge v3.0 software (Fuji Photo Film Co., Tokyo, Japan). Data were background-corrected, and expressed as photo-stimulated luminescence signals per square millimeter (PSL/mm^2).
# [4] = Ex vivo biodistribution in female Lewis rats; set-up: species or system rat; conditions: for Tissue uptake, Blood / Tissue uptake, Bone / Tissue uptake, Brain / Tissue uptake, Fat / Tissue uptake, Heart / Tissue uptake, Kidney / Tissue uptake, Liver / Tissue uptake, Lung / Tissue uptake, Muscle / Tissue uptake, Pancreas / Tissue uptake, Spleen / Tissue uptake, Thymus: n = 4
# Description: Organs of blood, heart, lung, muscle, fat, pancreas, spleen, kidney, liver, thymus, brain, and bone were dissected and collected for counting. All the samples were counted with a dilution of the injectate on an automated well counter (Beckman Gamma 8000 well counter). Tissues were weighed and the uptake was reported as background and decay-corrected percent injected dose per gram (% ID/g).
# The whole brains were quickly harvested and dissected into regions of cerebellum, brain stem, cortex, striatum, thalamus, and hippocampus, the remainder of the brain was also collected to determine the total brain uptake. Organs of blood, heart, lung, muscle, fat, pancreas, spleen, kidney, liver, thymus, and bone were also dissected and collected for counting. All the samples were counted with a dilution of the injectate on an automated well counter (Beckman Gamma 8000 well counter). Tissues were weighed and the uptake was reported as background and decay-corrected percent injected dose per gram (% ID/g).
# [5] = molecular target: T1, S1P1; assay: MicroPET and tracer kinetic modeling in EAE rat model, lumbar spinal cord; assay type: in vivo; conditions: for 2TCM Vd / LoganAIF Vd: lumbar spinal cord, n = 3-4
# Protocol: MicroPET scans were performed using an Inveon PET/CT system (Siemens Inc., Knoxville, Tenn.). […] Each rat was secured to a custom-designed acrylic bed equipped with a nosecone for gas anesthesia. PET/CT scans were conducted under 1.5-2% isoflurane anesthesia with the rat placed in transaxial position and centered with the T13 vertebral spine in the field of view. […] A list mode protocol was used with 60-min dynamic data acquisition.
# PET image data was processed using filter back projection algorithm with attenuation and scatter corrections. The data were reconstructed per time frame employing an iterative reconstructional algorithm (three-dimensional ordered subset expectation maximization (3D-OSEM), maximum a posteriori (MAP)) and corrected for decay, random coincidences, scatter, and attenuation. […] Image data was analyzed using Inveon Research Workstation software IRW 4.2 (Siemens Inc., Knoxville, Tenn.). The regions of interest (ROI), the lumbar spinal cord and bilateral common carotid arteries, were drawn over the co-registered PET/CT images using the standard protocol published previously. Time-activity curves (TACs) were obtained and were expressed as % ID/g. A two-tailed t-test was used for the comparison of the tracer uptake in EAE rat lumbar spinal cord versus sham. A P value less than 0.05 was considered statistically significant. Time-activity curves were further analyzed using 2-tissue-compartment model (2TCM), as well as Logan graphical analysis, using the ROI over bilateral common carotid arteries for image-based arterial blood input function.
smiles,measurement,setting,value
O=C(O)C1CN(Cc2ccc(-c3noc(-c4ccc(OCC[18F])c(C(F)(F)F)c4)n3)cc2)C1 [[^18F]4],Brain uptake of previous radiotracer,[1],0.49 % ID/g
OCCOCc1ccc(-c2noc(-c3ccc(OCC[18F])c(C(F)(F)F)c3)n2)cc1 [[^18F]12a],Max SUV value in total brain,[2]; microPET,~2.9 SUV
same,"Blood-brain barrier crossing, NHP brain","[2]; microPET, listed as 18F-TZ4877",able to cross the blood brain barrier; also recorded: able to cross the BBB
same,Time to max SUV in total brain,[2]; post injection,~5 min
same,Reduction of radioactivity by SEW2871 blocking,[3],~30%
same,"Tissue uptake, Blood",[4]; 5 min p.i.,0.36 % ID/g and 0.36 ± 0.04 % ID/g
same,"Tissue uptake, Blood",[4]; 30 min p.i.,0.51 ± 0.01 % ID/g
same,"Tissue uptake, Blood",[4]; 60 min p.i.,0.57 ± 0.03 % ID/g
same,"Tissue uptake, Blood",[4]; 120 min p.i.,0.66 ± 0.04 % ID/g
same,"Tissue uptake, Bone",[4]; 5 min p.i.,0.40 ± 0.04 % ID/g
same,"Tissue uptake, Bone",[4]; 30 min p.i.,0.34 ± 0.02 % ID/g
same,"Tissue uptake, Bone",[4]; 60 min p.i.,0.34 ± 0.01 % ID/g
same,"Tissue uptake, Bone",[4]; 120 min p.i.,0.42 ± 0.02 % ID/g
same,"Tissue uptake, Brain",[4]; 5 min p.i.,1.31 % ID/g and 1.31 ± 0.06 % ID/g
same,"Tissue uptake, Brain",[4]; 30 min p.i.,1.34 ± 0.08 % ID/g
same,"Tissue uptake, Brain",[4]; 60 min p.i.,1.13 ± 0.05 % ID/g
same,"Tissue uptake, Brain",[4]; 120 min p.i.,0.87 ± 0.04 % ID/g
same,"Tissue uptake, Fat",[4]; 5 min p.i.,0.24 % ID/g and 0.24 ± 0.03 % ID/g
same,"Tissue uptake, Fat",[4]; 30 min p.i.,1.63 ± 0.36 % ID/g
same,"Tissue uptake, Fat",[4]; 60 min p.i.,1.50 ± 0.08 % ID/g
same,"Tissue uptake, Fat",[4]; 120 min p.i.,1.91 ± 0.19 % ID/g
same,"Tissue uptake, Heart",[4]; 5 min p.i.,1.16 % ID/g and 1.16 ± 0.01 % ID/g
same,"Tissue uptake, Heart",[4]; 30 min p.i.,1.01 ± 0.08 % ID/g
same,"Tissue uptake, Heart",[4]; 60 min p.i.,0.85 ± 0.04 % ID/g
same,"Tissue uptake, Heart",[4]; 120 min p.i.,0.74 ± 0.03 % ID/g
same,"Tissue uptake, Kidney",[4]; 5 min p.i.,2.14 % ID/g and 2.14 ± 0.14 % ID/g
same,"Tissue uptake, Kidney",[4]; 30 min p.i.,1.43 % ID/g and 1.43 ± 0.08 % ID/g
same,"Tissue uptake, Kidney",[4]; 60 min p.i.,1.18 ± 0.04 % ID/g
same,"Tissue uptake, Kidney",[4]; 120 min p.i.,1.01 ± 0.04 % ID/g
same,"Tissue uptake, Liver",[4]; 5 min p.i.,4.87 % ID/g and 4.87 ± 0.27 % ID/g
same,"Tissue uptake, Liver",[4]; 30 min p.i.,3.58 % ID/g and 3.58 ± 0.28 % ID/g
same,"Tissue uptake, Liver",[4]; 60 min p.i.,3.32 ± 0.33 % ID/g
same,"Tissue uptake, Liver",[4]; 120 min p.i.,3.23 ± 0.10 % ID/g
same,"Tissue uptake, Lung",[4]; 5 min p.i.,1.31 % ID/g and 1.31 ± 0.01 % ID/g
same,"Tissue uptake, Lung",[4]; 30 min p.i.,1.20 ± 0.06 % ID/g
same,"Tissue uptake, Lung",[4]; 60 min p.i.,1.01 ± 0.04 % ID/g
same,"Tissue uptake, Lung",[4]; 120 min p.i.,0.87 ± 0.02 % ID/g
same,"Tissue uptake, Muscle",[4]; 5 min p.i.,0.28 % ID/g and 0.28 ± 0.02 % ID/g
same,"Tissue uptake, Muscle",[4]; 30 min p.i.,0.54 ± 0.01 % ID/g
same,"Tissue uptake, Muscle",[4]; 60 min p.i.,0.49 ± 0.03 % ID/g
same,"Tissue uptake, Muscle",[4]; 120 min p.i.,0.42 ± 0.01 % ID/g
same,"Tissue uptake, Pancreas",[4]; 5 min p.i.,2.19 % ID/g and 2.19 ± 0.04 % ID/g
same,"Tissue uptake, Pancreas",[4]; 30 min p.i.,1.52 % ID/g and 1.52 ± 0.04 % ID/g
same,"Tissue uptake, Pancreas",[4]; 60 min p.i.,1.21 ± 0.10 % ID/g
same,"Tissue uptake, Pancreas",[4]; 120 min p.i.,0.98 ± 0.05 % ID/g
same,"Tissue uptake, Spleen",[4]; 5 min p.i.,1.14 % ID/g and 1.14 ± 0.10 % ID/g
same,"Tissue uptake, Spleen",[4]; 30 min p.i.,0.79 % ID/g and 0.79 ± 0.06 % ID/g
same,"Tissue uptake, Spleen",[4]; 60 min p.i.,0.65 ± 0.02 % ID/g
same,"Tissue uptake, Spleen",[4]; 120 min p.i.,0.55 ± 0.03 % ID/g
same,"Tissue uptake, Thymus",[4]; 5 min p.i.,0.79 % ID/g and 0.79 ± 0.12 % ID/g
same,"Tissue uptake, Thymus",[4]; 30 min p.i.,0.68 ± 0.06 % ID/g
same,"Tissue uptake, Thymus",[4]; 60 min p.i.,0.58 ± 0.04 % ID/g
same,"Tissue uptake, Thymus",[4]; 120 min p.i.,0.51 ± 0.05 % ID/g
same,Defluorination in vivo (bone uptake 5 to 120 min),[4]; bone radioactivity unchanged,no metabolic defluorination in vivo
same,Visualization of rat lumbar spinal cord by microPET,[5]; EAE and sham rats,clear visualization of lumbar spinal cord
same,2TCM Vd,[5]; EAE rats,2.18 ± 0.20 mL/g
same,LoganAIF Vd,[5]; EAE rats,2.18 ± 0.20 mL/g
same,"Tracer uptake in lumbar spinal cord, EAE","[5]; EAE rats, summed SUV values 10-60 min post injection, n=3-4",1.42±0.14 SUV
same,2TCM Vd,[5]; Sham rats,1.80 ± 0.20 mL/g
same,LoganAIF Vd,[5]; Sham rats,1.77 ± 0.24 mL/g
same,Increase of tracer uptake in EAE rat lumbar spinal cord compared with shams,"[5]; microPET, 10-60 min post injection",29.5%
same,Averaged tracer uptake in sham rat spinal cord,"[5]; sham rats, 10-60 min post injection",1.0-1.1
same,"Tracer uptake in lumbar spinal cord, sham","[5]; sham rats, summed SUV values 10-60 min post injection, n=3-4",1.10±0.06 SUV
